Assay results taken from BindingDB's records for patent US11566007 (Revolution Medicines, 2023).

Experiments:
Experiment in all cases: Biochemical Assay
GTPase KRas [G13C] = GTPase KRas [G13C] (Homo sapiens, UniProt P01116, G13C)
Text: (§1) The purpose of this biochemical assay is to measure the ability of test compounds to covalently label nucleotide-loaded K-Ras isoforms. […] Analysis of raw data may be carried out using Waters MassLynx MS software, with % bound calculated from the deconvoluted protein peaks for labeled and unlabeled K-Ras.

GTPase NRas [G12C] = GTPase NRas [G12C] (Homo sapiens, UniProt P01111, G12C)
Chain of GTPase NRas [G12C] (P01111 whole entry G12C): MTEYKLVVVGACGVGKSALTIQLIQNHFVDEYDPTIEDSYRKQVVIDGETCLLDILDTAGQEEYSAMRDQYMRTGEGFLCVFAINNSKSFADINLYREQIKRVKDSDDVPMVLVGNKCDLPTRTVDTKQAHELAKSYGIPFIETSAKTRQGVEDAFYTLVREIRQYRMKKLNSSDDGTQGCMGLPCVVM

GTPase KRas [G12C] = GTPase KRas [G12C] (Homo sapiens, UniProt P01116, G12C)
Chain of GTPase KRas [G12C] (P01116 whole entry G12C): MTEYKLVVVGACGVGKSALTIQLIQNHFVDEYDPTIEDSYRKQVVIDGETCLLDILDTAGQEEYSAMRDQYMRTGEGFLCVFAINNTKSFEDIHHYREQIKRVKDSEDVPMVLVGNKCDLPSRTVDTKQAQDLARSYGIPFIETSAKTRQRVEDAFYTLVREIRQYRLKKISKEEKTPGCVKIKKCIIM
Text: as §1

GTPase NRas [Q61R] = GTPase NRas [Q61R] (Homo sapiens, UniProt P01111, Q61R)
Chain of GTPase NRas [Q61R] (P01111 whole entry Q61R): as the sequence (P01111 whole entry G12C) above, with C12G, Q61R counted along it

Chain of GTPase KRas [G13C] (P01116 whole entry G13C, canonical isoform): as the sequence (P01116 whole entry G12C) above, with C12G, G13C counted along it

| Compound | IC50 (GTPase KRas [G12C]) | also measured |
| --- | --- | --- |
| C=CC(=O)N1CCCN(C(=O)N(C)[C@H](C(=O)N[C@H]2Cc3cc(O)cc(c3)-c3ccc4c(c3)c(c(-c3ccccc3CCOC)n4CC)CC(C)(C)COC(=O)[C@@H]3CCCN(N3)C2=O)C(C)C)CC1 [US11566007, Example A13] |  | IC50 (GTPase KRas [G13C]): in the range around 0.55 µM |
| C=CC(=O)N1CCN(C(=O)N(C)[C@H](C(=O)N[C@H]2Cc3cc(O)cc(c3)-c3ccc4c(c3)c(c(-c3ccccc3CCOC)n4CC)CC(C)(C)COC(=O)[C@@H]3CCCN(N3)C2=O)C(C)C)CC1 [US11566007, Example A18] |  | IC50 (GTPase KRas [G13C]): in the range around 0.55 µM |
| C=CC(=O)N1CC[C@H](C(=O)N(C)[C@H](C(=O)N[C@H]2Cc3cccc(c3)-c3ccc4c(c3)c(c(-c3ccccc3CCOC)n4CC)CC(C)(C)COC(=O)[C@@H]3CCCN(N3)C2=O)C(C)C)C1 [US11566007, Example A24] |  | IC50 (GTPase NRas [G12C]): in the range around 5.5 µM |
| C=CC(=O)N1C[C@H](C)[C@H](C(=O)N(C)[C@H](C(=O)N[C@H]2Cc3cc(O)cc(c3)-c3ccc4c(c3)c(c(-c3ccccc3CCOC)n4CC)CC(C)(C)COC(=O)[C@@H]3CCCN(N3)C2=O)C(C)C)C1 [US11566007, Example A41] |  | IC50 (GTPase KRas [G13C]): in the range around 5.5 µM |
| CCn1c(-c2ccccc2CN(C)C)c2c3cc(ccc31)-c1cc(O)cc(c1)C[C@H](NC(=O)[C@H](C(C)C)N(C)C(=O)c1ccc(NC(=O)/C=C/CN(C)C)cn1)C(=O)N1CCC[C@H](N1)C(=O)OCC(C)(C)C2 [US11566007, Example A46] | in the range around 0.55 µM | IC50 (GTPase KRas [G13C]): in the range around 0.055 µM |
| CCn1c(-c2ccccc2CN(C)C)c2c3cc(ccc31)-c1cc(O)cc(c1)C[C@H](NC(=O)[C@H](C(C)C)N(C)C(=O)c1ccc(NC(=O)/C=C/CN(C)C)cc1)C(=O)N1CCC[C@H](N1)C(=O)OCC(C)(C)C2 [US11566007, Example A49] |  | IC50 (GTPase KRas [G13C]): in the range around 0.55 µM |
| C=CC(=O)N1CC[C@H](C(=O)N(C)[C@H](C(=O)N[C@H]2Cc3cc(O)cc(c3)-c3ccc4c(c3)c(c(-c3ccc5c(c3)OCCN5C)n4CC)CC(C)(C)COC(=O)[C@@H]3CCCN(N3)C2=O)C(C)C)C1 [US11566007, Example A50] | in the range around 0.55 µM | IC50 (GTPase NRas [Q61R]): > 10 µM |
| C=CC(=O)N1CC[C@H](C(=O)N(C)[C@H](C(=O)N[C@H]2Cc3cc(O)cc(c3)-c3ccc4c(c3)c(c(-c3cccnc3COC)n4CC)CC(C)(C)COC(=O)[C@@H]3CCCN(N3)C2=O)C2CCCC2)C1 [US11566007, Example A55] | in the range around 0.055 µM |  |
| C=CC(=O)N1C[C@H](C)[C@H](C(=O)N(C)[C@H](C(=O)N[C@H]2Cc3cc(O)cc(c3)-c3ccc4c(c3)c(c(-c3cccnc3COC)n4CC)CC(C)(C)COC(=O)[C@@H]3CCCN(N3)C2=O)C(C)C)C1 [US11566007, Example A56] | in the range around 0.055 µM |  |
| C=CC(=O)N1C[C@H](C)[C@H](C(=O)N(C)[C@H](C(=O)N[C@H]2Cc3cc(O)cc(c3)-c3ccc4c(c3)c(c(-c3cccnc3COC)n4CC)CC(C)(C)COC(=O)[C@@H]3CCCN(N3)C2=O)C2CCCC2)C1 [US11566007, Example A57] | in the range around 0.055 µM |  |
| C=CC(=O)N1CC[C@H](C(=O)N(C)[C@H](C(=O)N[C@H]2Cc3cc(O)cc(c3)-c3ccc4c(c3)c(c(-c3cncc(C#N)c3)n4CC)CC(C)(C)COC(=O)[C@@H]3CCCN(N3)C2=O)C(C)C)C1 [US11566007, Example A62] | in the range around 0.55 µM |  |
| C=CC(=O)N1CC[C@H](C(=O)N(C)[C@H](C(=O)N[C@H]2Cc3cc(O)cc(c3)-c3ccc4c(c3)c(c(C3=C(COC)CCCC3)n4CC)CC(C)(C)COC(=O)[C@@H]3CCCN(N3)C2=O)C(C)C)C1 [US11566007, Example A64] | in the range around 0.055 µM | IC50 (GTPase KRas [G13C]): in the range around 5.5 µM; IC50 (GTPase NRas [Q61R]): in the range around 5.5 µM |
| C=CC(=O)N1CC[C@H](C(=O)N(C)[C@H](C(=O)N[C@H]2Cc3cc(O)cc(c3)-c3ccc4c(c3)c(c(-c3cccnc3COC)n4C)CC(C)(C)COC(=O)[C@@H]3CCCN(N3)C2=O)C(C)C)C1 [US11566007, Example A66] | in the range around 0.55 µM |  |
| C=CC(=O)N1CC[C@H](C(=O)N(C)[C@H](C(=O)N[C@H]2Cc3cc(O)cc(c3)-c3ccc4c(c3)c(c(-c3cncc(CN(C)C)c3)n4CC)CC(C)(C)COC(=O)[C@@H]3CCCN(N3)C2=O)C(C)C)C1 [US11566007, Example A73] | in the range around 0.55 µM |  |
| CCn1c(-c2cnccc2COC)c2c3cc(ccc31)-c1cc(O)cc(c1)C[C@H](NC(=O)[C@H](C(C)C)N(C)C(=O)[C@H]1CCN(C(=O)/C=C/CN(C)C)C1)C(=O)N1CCC[C@H](N1)C(=O)OCC(C)(C)C2 [US11566007, Example A87] |  | IC50 (GTPase KRas [G13C]): in the range around 0.55 µM |
| CCn1c(-c2cnccc2COC)c2c3cc(ccc31)-c1cc(O)cc(c1)C[C@H](NC(=O)[C@H](C(C)C)N(C)C(=O)[C@H]1CCN(C(=O)C#CCN(C)C)C1)C(=O)N1CCC[C@H](N1)C(=O)OCC(C)(C)C2 [US11566007, Example A88] |  | IC50 (GTPase NRas [G12C]): < 0.01 µM |
| C=CC(=O)N1CC[C@H](C(=O)N(C)[C@H](C(=O)N[C@H]2Cc3nc(cs3)-c3ccc4c(c3)c(c(-c3cccnc3COC)n4CC)CC(C)(C)COC(=O)[C@@H]3CCCN(N3)C2=O)C(C)C)C1 [US11566007, Example A94] | in the range around 0.55 µM | IC50 (GTPase NRas [G12C]): in the range around 0.55 µM |
| CCn1c(-c2cccnc2COC)c2c3cc(ccc31)-c1cc(O)cc(c1)C[C@H](NC(=O)[C@H](C(C)C)N(C)C(=O)[C@H]1CCN(C(=O)C#CCN3CCOCC3)C1)C(=O)N1CCC[C@H](N1)C(=O)OCC(C)(C)C2 [US11566007, Example A95] | < 0.01 µM | IC50 (GTPase NRas [G12C]): < 0.01 µM |
| CCn1c(-c2cccnc2COC)c2c3cc(ccc31)-c1cc(O)cc(c1)C[C@H](NC(=O)[C@H](C(C)C)N(C)C(=O)C1CN(C(=O)C#CCN(C)C)C1)C(=O)N1CCC[C@H](N1)C(=O)OCC(C)(C)C2 [US11566007, Example A97] |  | IC50 (GTPase KRas [G13C]): < 0.01 µM |
| CCn1c(-c2cccnc2[C@H](C)OC)c2c3cc(ccc31)-c1cc(O)cc(c1)C[C@H](NC(=O)[C@H](C(C)C)N(C)C(=O)c1nc(NC(=O)/C=C/CN(C)C)cs1)C(=O)N1CCC[C@H](N1)C(=O)OCC(C)(C)C2 [US11566007, Example A258] | in the range around 0.55 µM | IC50 (GTPase NRas [G12C]): in the range around 0.55 µM |
| C=CC(=O)N1CC[C@H](C(=O)N(C)[C@H](C(=O)NC2C[C@@H]3CN(CCO3)c3ccc4c(c3)c(c(-c3cccnc3COC)n4CC)CC(C)(C)COC(=O)[C@@H]3CCCN(N3)C2=O)C(C)C)C1 (stereo partly drawn) [US11566007, Example A318] |  | IC50 (GTPase NRas [G12C]): > 10 µM |
| C=CC(=O)N1CC[C@H](C(=O)N(C)[C@H](C(=O)N[C@H]2CC3=NN=C(O3)c3ccc4c(c3)c(c(-c3cccnc3[C@H](C)OCC)n4CC(F)(F)F)CC(C)(C)COC(=O)[C@@H]3CCCN(N3)C2=O)C(C)C)C1 [US11566007, Example A424] | in the range around 0.55 µM | IC50 (GTPase KRas [G13C]): in the range around 5.5 µM; IC50 (GTPase NRas [G12C]): in the range around 0.55 µM |

More lines, main results first:

| IC50 (GTPase KRas [G12C]) | Compound | also measured |
| --- | --- | --- |
| in the range around 0.55 µM | C=CC(=O)N1CC[C@H](C(=O)N(C)[C@H](C(=O)N[C@H]2Cc3cc(O)cc(c3)-c3ccc4c(c3)c(c(-c3ccccc3N3CCOCC3)n4CC)CC(C)(C)COC(=O)[C@@H]3CCCN(N3)C2=O)C(C)C)C1 [US11566007, Example A26] | IC50 (GTPase NRas [Q61R]): > 10 µM |
| in the range around 0.55 µM | C=CC(=O)N1CC[C@H](C(=O)N(C)[C@H](C(=O)N[C@H]2Cc3cc(N)cc(c3)-c3ccc4c(c3)c(c(-c3ccccc3COC)n4CC)CC(C)(C)COC(=O)[C@@H]3CCCN(N3)C2=O)C(C)C)C1 [US11566007, Example A42] |  |
| in the range around 0.055 µM | C=CC(=O)N1C[C@H](C)[C@H](C(=O)N(C)[C@H](C(=O)N[C@H]2Cc3cc(O)cc(c3)-c3ccc4c(c3)c(c(-c3ccccc3CN(C)C)n4CC)CC(C)(C)COC(=O)[C@@H]3CCCN(N3)C2=O)C2CCCC2)C1 [US11566007, Example A43] |  |
| in the range around 0.055 µM | C=CC(=O)N1CC[C@H](C(=O)N(C)[C@H](C(=O)N[C@H]2Cc3cc(O)cc(c3)-c3ccc4c(c3)c(c(-c3cccnc3COCC)n4CC)CC(C)(C)COC(=O)[C@@H]3CCCN(N3)C2=O)C(C)C)C1 [US11566007, Example A44] |  |
| in the range around 0.055 µM | C=CC(=O)N1C[C@H](C)[C@H](C(=O)N(C)[C@H](C(=O)N[C@H]2Cc3cc(O)cc(c3)-c3ccc4c(c3)c(c(-c3ccccc3CN(C)C)n4CC)CC(C)(C)COC(=O)[C@@H]3CCCN(N3)C2=O)C(C)C)C1 [US11566007, Example A52] |  |
| in the range around 0.55 µM | C=CC(=O)N1CC[C@H](C(=O)N(C)[C@H](C(=O)N[C@H]2Cc3cc(O)cc(c3)-c3ccc4c(c3)c(c(-c3cccnc3N3CC(OC)C3)n4CC)CC(C)(C)COC(=O)[C@@H]3CCCN(N3)C2=O)C(C)C)C1 [US11566007, Example A60] | IC50 (GTPase NRas [Q61R]): > 10 µM |
| in the range around 0.55 µM | C=CC(=O)N1CC[C@@]2(CCCN([C@H](C(=O)N[C@H]3Cc4cc(O)cc(c4)-c4ccc5c(c4)c(c(-c4ccccc4CCOC)n5CC)CC(C)(C)COC(=O)[C@@H]4CCCN(N4)C3=O)C(C)C)C2=O)C1 [US11566007, Example A63] |  |
| in the range around 0.55 µM | C=CC(=O)N1CC[C@@]2(CCN([C@H](C(=O)N[C@H]3Cc4cc(O)cc(c4)-c4ccc5c(c4)c(c(-c4ccccc4CCOC)n5CC)CC(C)(C)COC(=O)[C@@H]4CCCN(N4)C3=O)C(C)C)C2=O)C1 [US11566007, Example A68] |  |
| in the range around 0.55 µM | C=CC(=O)N1CC[C@H](C(=O)N(C)[C@H](C(=O)N[C@H]2Cc3cc(O)cc(c3)-c3ccc4c(c3)c(c(-c3c(CCOC)cccc3OC)n4CC)CC(C)(C)COC(=O)[C@@H]3CCCN(N3)C2=O)C(C)C)C1 [US11566007, Example A80] | IC50 (GTPase NRas [Q61R]): > 10 µM |
